Measured values: US20070274915A1, “Modulation Of Anergy And Methods For isolating Anergy-Modulating Compounds” (priority 2003, published 2007)
Where a SMILES comes first, the peptide text is derived from it. The star is where a group is joined. Cbz = O=C(OCc1ccccc1)*

Legend:
D5 T cells = test: Ionomycin-induced anergy in D5 Th1 cells, immunoblot of signaling proteins and E3 ligases; assay type: cell-based, murine
Description: (§1) The murine D5 (Ar-5) Th1 cell clone was grown as previously described (F. Macian et al., Cell 109, 719-31 (2002). CD4+ cells were isolated from spleen and lymph nodes of DO11.10 or 2B4 TCR-transgenic mice using positive selection with anti-CD4 magnetic beads (Dynal), and differentiated into Th1 cells for 2 weeks using standard protocols (id.). Anergy was induced by treating primary Th1 cells or the D5 Th1 clone (10^6 cells/ml) with 1 μM ionomycin for 16 hours, Cyclosporin A was included in some experiments at a concentration of 2 μM. The cells were then washed to remove the ionomycin and incubated at higher cell density (˜3×10^6 cells/ml) for 1-2 hours at 37 C. In the experiment of FIG. 14, a high-density incubation step was included. The extent of anergy induction was evaluated by intracellular cytokine staining or in standard proliferation assays (id.). Restimulation of D5 cells was done with 1 μg/ml anti-CD3 with or without 2.5 μg/ml anti-CD28 or with 20 nM PMA or 1 μM Ionomycin or both. HEK 293 cells were grown and transfected with Ca2+ phosphate using standard protocols.
D5 cells were extracted at 10^6 cells/10 μl in RIPA buffer (20 mM Tris pH 7.5, 250 mM NaCl, 1 mM DTT, 10 mM MgCl2, 1% Nonidet P-40, 0.1% SDS, 0.5% sodium deoxycholate) supplemented with protease and phosphatase inhibitors (1 mM PMSF, 25 μg/ml aprotinin, 25 μg/ml leupeptin, 10 mM NaF, 8 mM β glycerophosphate, 0,1 mM sodium ortho vanadate). For assessing protein levels in cell extracts, 5-30 μl of RIPA extracts were separated on 9-12% SDS-polyacrylamide gels, and proteins were electrotransferred onto nitrocellulose membranes. For immunoprecipitations, 500-1000 μl of RIPA cell extracts were used. For coimmunoprecipitations from lysates of transfected HEK 293 cells, cells from one 10 cm dish were lysed in 50 mM Hepes pH 7.5, 100 mM NaCl, 1 mM EDTA, 0,5% NP-40 and 10% glycerol including phosphatase and protease inhibitors. Lysates were precleared with either protein A- or protein G-Sepharose, immunoprecipitations were performed for 4 hrs and the resulting precipitates were washed 3-4 times with the buffer used for cell extraction. Immunoblots were performed with antibody solutions in 5% milk and TBS (10 mM TrisCl (pH 8.0), 150 mM NaCl) and washes were done in TBS containing 0.05% Tween-20.

AND T cell blasts = test: Stability of mature immunological synapses on lipid bilayers after phospholipase inhibitors; assay type: cell-based
Description: (§2) Planar bilayers were prepared essentially as described in (Grakoui et al., Science 285, 221-7 (1999)), except that the MCC88-103 peptide was loaded on the GPI-IEk for 24 hours. Bilayers were prepared using Oregon green labeled GPI-IEk and Cy5 labeled GPI-ICAM-1 in parallel plate flow cells (Bioptechs). Control and ionomycin treated cells were injected into the flow cell at a density of 10^6 cells/ml. Areas of bilayers where cells were forming synapses were imaged using FITC and Cy5 optics on an Olympus IX-70 inverted microscope equipped with a amamtsu ORCA-ER digital camera and a Xenon-arc lamp as a light source for fluorescence microscopy. […] Bright field, interference reflection (IRM) and fluorescence images were collected and processed using the Metamorph software. The background from the fluorescence images was subtracted using the produce background correction image function which is based on median filtering to subtract background that is nonuniform. Percentage of cells adhering were analyzed by comparing bright field and IRM images.
Experiments using phospholipase inhibitors were performed using AND T cell blasts (day 8). […] After 60 minutes, fields containing stable immunological synapses with central MHC clusters (green) and complete ICAM-1 rings (red) were imaged and the locations recorded using an automated stage and IPLab software. […]

HEK 293 cells = test: PLC-γ1 ubiquitination in transfected HEK 293 cells; assay type: cell-based; settings: 3 μM ionomycin for 30 min
Description: FIG. 17C is a chart and a set of immunoblots illustrating that Itch induces mono-, di- and poly-ubiquitination of PLC-γ1. HEK 293 cells were transfected in duplicate with expression vectors coding for HA-tagged ubiquitin, AU.1-tagged PLC-γ1 and/or myc-tagged Itch as indicated, and one culture of each pair was stimulated with 3 μM ionomycin for 30 min before cell extraction. Cell extracts were immunoprecipitated with AU.1 antibodies and analyzed for ubiquitin-modified or total immunoprecipitated PLC-γ1 (upper two panels), or were directly analyzed for PLC-γ1 and Itch expression by immunoblotting (lower two panels).
as §1, with “The extent of anergy induction was evaluated by intracellular cytokine staining or in standard proliferation assays (id.). Restimulation of D5 cells was done with 1 μg/ml anti-CD3 with or without 2.5 μg/ml anti-CD28 or with 20 nM PMA or 1 μM Ionomycin or both. HEK 293 cells were grown and transfected with Ca2+ phosphate using standard protocols.” left out

D5 cells = test: Real-time RT-PCR of E3 ligase and PLC-γ1 mRNA levels in D5 cells; assay type: cell-based, murine; settings: ionomycin-treated T cells
Description: Total RNA was prepared from untreated or ionomycin-pretreated D5 cells using Ultraspec reagent (Biotecx). cDNAs were synthesized from 2 μg of total RNA as template, using a cDNA synthesis kit (Invitrogen). Quantitative real time-PCR was performed in an I-Cycler (BioRad) using a SYBR Green PCR kit (Applied Biosystems). The sequences of the primer pairs are as follows:
Thermal cycling conditions were 95° C. for 5 min, then 40 cycles of 95° C., 65° C., and 72° C. for 30 sec each, terminating with a single cycle at 72° C. for 5 min. Signals were captured during the polymerization step (72° C.). A threshold was set in the linear part of the amplification curve, and the number of cycles needed to reach it was calculated for each gene. Melting curve analysis and agarose gel electrophoresis were performed to test the purity of the amplified bands. Normalization was performed by using L32 levels as an internal control for each sample. The ratio of mRNA levels in ionomycin-treated or ionomycin/CsA treated to untreated samples were determined.

[1] = tested on: TH1 cells from 5CC7 TCR-transgenic mice; test: Immune synapse formation by 5CC7 TCR-transgenic TH1 cells on lipid bilayers; assay type: cell-based; settings: 5CC7 T cells pretreated with ionomycin for 16 h
Description: as §2
The formation of immune synapses was evaluated as described for the experiments shown in FIG. 19, with TH1 cells from wild-type or Cblb−/− 5CC7 TCR-transgenic mice and lipid bilayers displaying ICAM-1 and I-Ek pigeon cytochrome C (PCC) molecules. […] Below the image series is a histogram that quantifies the imaging results. […]

[2] = tested on: Th1 cells from BALB/c mice; test: Pulse-chase of PKCθ in Th1 cells; assay type: cell-based; settings: ionomycin 16 h, pulse-chase with plate-bound anti-CD3
Description: FIG. 21 is a set of autoradiograms illustrating calcineurin-dependent degradation of PKCθ in anergic T cells. Th1 cells from BALB/c mice were left untreated or pretreated with ionomycin for 16 h, pulse-labeled for 2 h with ^35S cysteine/methionine, washed and stimulated with plate-bound anti-CD3 antibody during the indicated chase periods. PKCθ immunoprecipitates were analyzed by autoradiography.
CD4 cells were isolated via dynal beads selection, cells were starved for 1 hr in cysteine/methionine free media and incubated for 2 hrs with 100 μCi/ml 35S-cysteine and -methionine. Cells were washed, resuspended in complete media and stimulated with 2 μg/ml anti-CD3 on crosslinking antibody coated plates. Cells were extracted in RIPA buffer and immunoprecipitations performed as described above. Immunoprecipitates were resolved on SDS-PAGE, that were treated with Enhance solution (NEN), dried and used for autoradiographs. Densitometric analysis was performed using IQ-Mac vs 1.2 software.

SMILES: CC(C)C[C@@H](C=O)NC(=O)[C@H](CC(C)C)NC(=O)[C@H](CC(C)C)NC(=O)OCc1ccccc1 [MG132] (Cbz-Leu-Leu-Leu-aldehyde)
- PLC-γ1 degradation (D5 T cells; ionomycin 16 h, then incubation with 10 μM MG132): did not prevent
- accumulation of a modified (mono-ubiquitinated) form of PKCθ (D5 T cells; only in anergized T cells, long exposure): increased the accumulation

SMILES: COc1ccc2c(c1)CC[C@@H]1[C@@H]2CC[C@]2(C)[C@@H](NCCCCCCN3C(=O)C=CC3=O)CC[C@@H]12 [U73122]
- U73122 concentrations at which the effects were observed (AND T cell blasts; 3 independent experiments): 0.1 to 1 µM
- effect on established mature synapses (AND T cell blasts; added after mature synapses formed): disintegration of the outer LFA-1 ring

SMILES: C[C@H](CCC(=O)O)C[C@H](C)C[C@H](C)C(=O)/C=C(\O)[C@H](C)C[C@H](C)C/C=C/[C@@H](C)[C@@H](O)[C@@H](C)[C@@H](O)C[C@@H]1CC[C@@](C)([C@H]2CC[C@@](C)([C@@H](C)O)O2)O1 [ionomycin]
- PLC-γ1 ubiquitination (HEK 293 cells): induced PLC-γ1 ubiquitination
- PLC-γ1 mRNA levels (D5 cells): remained constant
- PLC-γ1, PKCθ and RasGAP protein levels (D5 T cells; D5 T cells, ionomycin pretreatment followed by cell-cell contact, immunoblot): pronounced decrease
- increase in total protein ubiquitination (D5 T cells; ionomycin pretreatment, D5 T cells): ~2 fold
- Cbl-b protein induction (D5 T cells; ionomycin-treated D5 cells): even more highly induced
- Itch protein levels, increase (D5 T cells; ionomycin-treated D5 cells): ~3 fold
- Nedd4 protein levels (D5 T cells; ionomycin-treated D5 cells): no change
- Tsg101 protein levels, increase (D5 T cells; ionomycin-treated D5 cells): ~3 fold
- synapse stability [1]: synapse disorganization
- time to form the mature synapse on contact with the bilayer [1]: < 5 min
- PKCθ turnover versus mock-treated T cells [2]: significantly more rapidly
